Measured values as given in patent US12065447B2, “Heterocyclic amide for inhibiting RIP1 kinase and uses thereof” (SHANGHAI INSTITUTE OF MATERIA MEDICA, CHINESE ACADEMY OF …, priority 2018, dated 2024).

Columns and labels:
[1] = test system: TNFα induced systemic inflammatory response syndrome (SIRS); experiment: TNFα induced C57BL/6 mouse systemic inflammatory response syndrome (SIRS) model (hypothermic shock); type: in vivo; settings: mTNFα 5 μg/mouse tail vein, drug by gavage 15 min before modeling
Procedure: TNFα Induced C57BL/6 Mouse Systemic Inflammatory Response Syndrome (SIRS) Model
Source, stirp and strain: C57BL/6 pure mouse, female, 18-20 g, purchased from Shanghai Lingchang Biotechnology Co., Ltd., license No. SCXK (Shanghai) 2013-0018. The animals were bred in the SPF animal room of Building No. 2 of the Shanghai institute of Materia Medica, and the experimental animal use license number is SYXK (Shanghai) 2013-0049. The animals were bred for at least one week before use at 22±1° C. with a humidity of 55±5% and 12 h light and dark cycle. Both feed and water are freely ingested by the animals after disinfection. All experiments were carried out in strict accordance with the relevant regulations on experimental animals.
2. Test Reagents and Materials: • 1) Recombinant Mouse mTNFα was purchased from Shanghai JIN′AN Biological Company. • 2) Experimental materials: 1.5 mL centrifuge tubes were purchased from Axygen Company, 15 mL and 50 mL centrifuge tubes were purchased from Corning Company; commonly used surgical instruments (ophthalmic scissors, large tweezers, small tweezers, tissue scissors) and 1 mL, 2 mL, and 10 mL disposable plastic dispensers were purchased from Sinopharm Chemical Reagent Co., Ltd.; pipettes of various specifications were purchased from Eppendorf Company; tips of various specifications were purchased from Axygen and Sartoruris Company. • 3) Experimental equipments: the syringe adopts omnican insulin syringes, a disposable syringe adopts sterile insulin syringe with a product number of 9161635, and an outer diameter and length of the needle tube of 0.30*8 mm; the mouse tail vein syringe is model YLS-Q9G purchased from Jinan Yyan Technology Development Co., Ltd.; Laboratory animal rectal temperature measuring instrument was model ALC-ET06 purchased from Shanghai Alcott Biotechnology Co., Ltd.
3. Reagents and Compound Preparation Methods: • 1) Recombinant Mouse mTNFα: mTNFα lyophilized powder was dissolved in PBS to prepare a stock solution of 200 μg/mL, and stored in a refrigerator at −20° C. after sub-packaging. The stock solution was put in a refrigerator at 4° C. overnight to reach dissolution equilibrium when in use. […] The drug concentration was determined comprehensively according to the results of in vitro experiments and the pharmacokinetic properties.
4. […] Therefore, the model with tail vein injection of TNFα was selected as the classic model for an animal level screen of RIP1 inhibitor. • 2) Experimental process: • a) The experimental animals were randomly grouped according to their body weight one day in advance, and there are 8 animals in each group. • b) On the day of the experiment, mTNFα and sterile PBS were diluted according to the above method, sucked into an insulin syringe at 125 μl/piece, that is, 5 μg/mice. • c) The drug was administered 15 min before modeling by gavage at 0.2 mL/mouse. • d) 15 min after administration, the modeling was started by injection of PBS or mTNFα into the tail vein, the injection was conducted according to the above dose. • e) After modeling, the rectal temperature was measured every 1 h and the survival rate was measured.
5. Testing Indicators: • 1) Animal body temperature: The rectal temperature was measured every 1 h after modeling. […]

[2] = Study on oral pharmacokinetics in rats; type: in vivo; settings: rat, plasma, male SD rats, 3 mg/kg by gavage, average; for AUC(0-inf): extrapolated to infinity, read-out: AUCINF_obs; for MRT inf: read-out: Average residence time MRTINF_obs; for half-life: read-out: Half life T1/2 (converted); for Cmax: read-out: Peak plasma concentration Cmax
Procedure: Study on Oral Pharmacokinetics in Rats • 1. […] The pharmacokinetic behaviors of the compounds of the present invention in rats were studied, and the pharmacokinetic properties of the compounds were evaluated. • 2. The test animals are healthy adult male SD rats, 3 in each group. • 3. […] Liquid chromatography tandem mass spectrometry (LC-MS/MS) was used to determine the plasma concentration of test compounds in rat after intragastrical administration of different compounds.

SMILES	Survival rate [1]	AUC(0-t) [2]	AUC(0-inf) [2]	MRT inf [2]	half-life [2]	Cmax [2]
CN1C(=O)[C@@H](NC(=O)c2n[nH]c(Cc3ccccc3)n2)COc2ccccc21 [GSK2982772, reference compound]	100%	–	–	–	–	–
Cc1c(C#Cc2cnn(C)c2)sc2c1SC[C@H](NC(=O)c1nnc(Cc3ccccc3)[nH]1)C(=O)N2C [ZB-R-39]	–	1680 ng·h/mL	1700 ng·h/mL	4.07 h	3.46 h	525 ng/mL
CN1C(=O)[C@@H](NC(=O)c2n[nH]c(Cc3ccccc3)n2)COc2ccc(C#Cc3ccccn3)cc21 [ZB-R-50]	100%	3110 ng·h/mL	3120 ng·h/mL	2.2 h	1.56 h	1450 ng/mL
CN1C(=O)[C@@H](NC(=O)c2n[nH]c(Cc3ccccc3)n2)COc2ccc(C#Cc3cccnc3)cc21 [ZB-R-51]	–	4210 ng·h/mL	4290 ng·h/mL	2.8 h	1.79 h	1360 ng/mL
CN1C(=O)[C@@H](NC(=O)c2n[nH]c(Cc3ccccc3)n2)COc2ccc(C#Cc3ccncc3)cc21 [ZB-R-52]	–	1560 ng·h/mL	1560 ng·h/mL	1.61 h	0.81 h	755 ng/mL
CN1C(=O)[C@@H](NC(=O)c2n[nH]c(Cc3ccccc3)n2)COc2ccc(C#Cc3cnn(C)c3)cc21 [ZB-R-53]	100%	4500 ng·h/mL	4650 ng·h/mL	2.41 h	1.54 h	1760 ng/mL
CN1C(=O)[C@@H](NC(=O)c2n[nH]c(Cc3ccccc3)n2)COc2ccc(C#CC3CCOCC3)cc21 [ZB-R-54]	100%	1240 ng·h/mL	1250 ng·h/mL	2 h	1.14 h	667 ng/mL
CN1C(=O)[C@@H](NC(=O)c2n[nH]c(Cc3ccccc3)n2)COc2ccc(C#CC3CC3)cc21 [ZB-R-55]	100%	25700 ng·h/mL	26100 ng·h/mL	7.23 h	3.71 h	2900 ng/mL
